# Measured values taken from patent US8039514B2, “Sulfonamide compounds and use thereof” (Asahi Kasei Pharma Corporation, priority 2008, dated 2011).
# Molecular target: T1, human calcium-sensing receptor (CaSR) (Homo sapiens, UniProt P41180)
# T1 construct: expressed in transfected cells
# T1 sequence (P41180 20-1078): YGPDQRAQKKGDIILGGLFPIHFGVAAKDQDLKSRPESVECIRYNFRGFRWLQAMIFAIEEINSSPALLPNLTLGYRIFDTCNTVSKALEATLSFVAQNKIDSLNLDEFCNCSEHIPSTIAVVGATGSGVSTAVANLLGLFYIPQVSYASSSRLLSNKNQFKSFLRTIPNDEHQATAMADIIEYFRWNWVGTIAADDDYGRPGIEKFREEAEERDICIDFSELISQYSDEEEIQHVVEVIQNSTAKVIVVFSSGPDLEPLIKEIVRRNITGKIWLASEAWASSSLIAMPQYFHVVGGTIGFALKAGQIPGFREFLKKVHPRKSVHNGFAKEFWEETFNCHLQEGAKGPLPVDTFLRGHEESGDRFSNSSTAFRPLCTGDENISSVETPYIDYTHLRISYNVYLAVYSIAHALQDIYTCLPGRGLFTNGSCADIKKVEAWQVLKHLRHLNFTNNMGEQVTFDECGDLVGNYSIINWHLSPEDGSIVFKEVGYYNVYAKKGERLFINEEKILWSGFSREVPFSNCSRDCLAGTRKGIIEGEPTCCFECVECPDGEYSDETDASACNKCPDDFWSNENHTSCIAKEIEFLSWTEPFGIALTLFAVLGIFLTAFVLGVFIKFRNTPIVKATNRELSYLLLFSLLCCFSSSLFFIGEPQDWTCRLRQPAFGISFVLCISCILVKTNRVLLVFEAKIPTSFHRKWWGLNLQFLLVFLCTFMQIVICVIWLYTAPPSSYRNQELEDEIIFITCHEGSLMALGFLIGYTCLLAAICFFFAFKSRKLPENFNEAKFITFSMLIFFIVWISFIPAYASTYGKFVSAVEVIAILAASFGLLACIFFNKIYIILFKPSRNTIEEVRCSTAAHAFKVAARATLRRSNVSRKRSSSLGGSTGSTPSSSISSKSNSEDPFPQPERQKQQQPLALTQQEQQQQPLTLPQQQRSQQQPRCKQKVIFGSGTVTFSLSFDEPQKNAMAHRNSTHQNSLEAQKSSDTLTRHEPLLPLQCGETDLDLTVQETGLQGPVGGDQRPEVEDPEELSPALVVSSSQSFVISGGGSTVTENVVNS
# Experiment: intracellular Ca assay, CaSR antagonist activity in HEK293/hCaSR cells
# Format: cell-based
# Details: Fura2-AM, inhibition of response to calcium chloride ligand solution, read-out: IC50 values according to the intracellular Ca assay (CaSR antagonist activity)
# Procedure, shortened: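 HEK293/hCaSR cells were loaded with Fura2-AM and pre-incubated with compound for 160 s at 37° C in HEPES buffer (pH 7.4, 0.8 mM CaCl2), then challenged with calcium ligand solution. Read-out was the peak 340/380 nm fluorescence ratio; inhibition is relative to no-compound (0%) and no-calcium-ligand (100%) controls.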
row,Structure (SMILES),IC50 [µM]
1,"CN(C[C@H](O)CNC(C)(C)CC1Cc2ccccc2C1)S(=O)(=O)c1ccc(-c2ccc(CCC(=O)O)c(F)c2)c(Cl)c1 [Exp. 5-59, (R)-3-(2′-chloro-4′-(N-(3-(1-(2,3-dihydro-1H-inden-2-yl)-2-methylpropan-2-ylamino)-2-hydroxypropyl)-N-methylsulfamoyl)-3-fluorobiphenyl-4-yl)propionic acid]",≤ 0.3
2,"CN(C[C@H](O)CNC(C)(C)CC1Cc2ccccc2C1)S(=O)(=O)c1ccc(-c2ccc(F)c(CCC(=O)O)c2)cc1C(F)(F)F [Exp. 5-62, (R)-3-(4′-(N-(3-(1-(2,3-dihydro-1H-inden-2-yl)-2-methylpropan-2-ylamino)-2-hydroxypropyl)-N-methylsulfamoyl)-4-fluoro-3′-(trifluoromethyl)biphenyl-3-yl)propionic acid]",≤ 0.3
3,"CCc1cc(-c2c(F)cccc2CCC(=O)O)ccc1S(=O)(=O)N(C)C[C@H](O)CNC(C)(C)CCCc1ccccc1 [Exp. 5-74, (R)-3-(3′-ethyl-6-fluoro-4′-(N-(2-hydroxy-3-(2-methyl-5-phenylpentan-2-ylamino)propyl)-N-methylsulfamoyl)biphenyl-2-yl)propionic acid]",≤ 0.3
4,"CCc1cc(-c2ccc(CCCC(=O)O)cc2)ccc1S(=O)(=O)N(C)C[C@H](O)CNC(C)(C)CCCc1ccccc1 [Exp. 5-77, (R)-4-(3′-ethyl-4′-(N-(2-hydroxy-3-(2-methyl-5-phenylpentan-2-ylamino)propyl)-N-methylsulfamoyl)biphenyl-4-yl)butanoic acid]",≤ 0.3
5,"Cc1cc(CCC(=O)O)sc1-c1cc(C(F)(F)F)cc(S(=O)(=O)N(C)C[C@H](O)CNC(C)(C)CCCc2ccccc2)c1 [Exp. 6-1, (R)-3-(5-(3-(N-(2-hydroxy-3-(2-methyl-5-phenylpentan-2-ylamino)propyl)-N-methylsulfamoyl)-5-(trifluoromethyl)phenyl)-4-methylthiophen-2-yl)propionic acid]",≤ 0.3
6,"CN(C[C@H](O)CNC(C)(C)CCCc1ccccc1)S(=O)(=O)c1c(Cl)cc(-c2cccc(CCC(=O)O)c2)cc1Cl [Exp. 6-6, (R)-3-(3′,5′-dichloro-4′-(N-(2-hydroxy-3-(2-methyl-5-phenylpentan-2-ylamino)propyl)-N-methylsulfamoyl)biphenyl-3-yl)propionic acid]",≤ 0.3
7,"CN(C[C@H](O)CNC(C)(C)CC1Cc2ccccc2C1)S(=O)(=O)c1cc(-c2ccc(CCC(=O)O)s2)cc(C(F)(F)F)c1 [Exp. 8-1, (R)-3-(5-(3-(N-(3-(1-(2,3-dihydro-1H-inden-2-yl)-2-methylpropan-2-ylamino)-2-hydroxypropyl)-N-methylsulfamoyl)-5-(trifluoromethyl)phenyl)thiophen-2-yl)propionic acid]",≤ 0.3
8,"CCc1cc(-c2c(F)cccc2CCC(=O)O)ccc1S(=O)(=O)N(C)C[C@H](O)CNC(C)(C)CCCc1ccsc1 [Exp. 8-24, (R)-3-(3′-ethyl-6-fluoro-4′-(N-(2-hydroxy-3-(2-methyl-5-(thiophen-3-yl)pentan-2-ylamino)propyl)-N-methylsulfamoyl)biphenyl-2-yl)propionic acid]",≤ 0.3

# The remaining lines, values ahead:
row,IC50 [µM],Structure (SMILES)
1,≤ 0.3,"CN(C[C@H](O)CNC(C)(C)CCCc1ccccc1)S(=O)(=O)c1cc(-c2cccc(CCC(=O)O)c2)cc(C(F)(F)F)c1 [Exp. 9-55, (R)-3-(3′-(N-(2-hydroxy-3-(2-methyl-5-phenylpentan-2-ylamino)propyl)-N-methylsulfamoyl)-5′-(trifluoromethyl)biphenyl-3-yl)propionic acid]"
2,≤ 0.3,"CN(C[C@H](O)CNC(C)(C)CCCc1ccccc1)S(=O)(=O)c1cc(-c2ccc(CCC(=O)O)cc2)cc(C(F)(F)F)c1 [Exp. 9-56, (R)-3-(3′-(N-(2-hydroxy-3-(2-methyl-5-phenylpentan-2-ylamino)propyl)-N-methylsulfamoyl)-5′-(trifluoromethyl)biphenyl-4-yl)propionic acid]"
3,≤ 0.3,"CN(C[C@H](O)CNC(C)(C)CCCc1ccsc1)S(=O)(=O)c1cc(-c2cccc(CCC(=O)O)c2)cc(C(F)(F)F)c1 [Exp. 9-73, (R)-3-(3′-(N-(2-hydroxy-3-(2-methyl-5-(thiophen-3-yl)pentan-2-ylamino)propyl)-N-methylsulfamoyl)-5′-(trifluoromethyl)biphenyl-3-yl)propionic acid]"
4,≤ 0.3,"CN(C[C@H](O)CNC(C)(C)CCCc1ccsc1)S(=O)(=O)c1cc(-c2ccc(CCC(=O)O)cc2)cc(C(F)(F)F)c1 [Exp. 9-75, (R)-3-(3′-(N-(2-hydroxy-3-(2-methyl-5-(thiophen-3-yl)pentan-2-ylamino)propyl)-N-methylsulfamoyl)-5′-(trifluoromethyl)biphenyl-4-yl)propionic acid]"
5,≤ 0.3,"CCc1cc(-c2ccc(CCC(=O)O)cc2)ccc1S(=O)(=O)N(C)C[C@H](O)CNC(C)(C)CCCc1ccccc1F [Exp. 9-89, (R)-3-(3′-ethyl-4′-(N-(3-(5-(2-fluorophenyl)-2-methylpentan-2-ylamino)-2-hydroxypropyl)-N-methylsulfamoyl)biphenyl-4-yl)propionic acid]"
6,≤ 0.3,"CCc1cc(-c2ccc(CCC(=O)O)cc2)ccc1S(=O)(=O)N(C)C[C@H](O)CNC(C)(C)CCCc1cccc(F)c1 [Exp. 9-90, (R)-3-(3′-ethyl-4′-(N-(3-(5-(3-fluorophenyl)-2-methylpentan-2-ylamino)-2-hydroxypropyl)-N-methylsulfamoyl)biphenyl-4-yl)propionic acid]"
7,≤ 0.3,"CCc1cc(-c2ccc(CCC(=O)O)cc2)ccc1S(=O)(=O)N(C)C[C@H](O)CNC(C)(C)CCCc1cccs1 [Exp. 9-92, (R)-3-(3′-ethyl-4′-(N-(2-hydroxy-3-(2-methyl-5-(thiophen-2-yl)pentan-2-ylamino)propyl)-N-methylsulfamoyl)biphenyl-4-yl)propionic acid]"
8,≤ 0.3,"CN(C[C@H](O)CNC(C)(C)CC1Cc2ccccc2C1)S(=O)(=O)c1ccc(-c2cccc(CCC(=O)O)n2)c(Cl)c1 [Exp. 9-161, (R)-3-(6-(2-chloro-4-(N-(3-(1-(2,3-dihydro-1H-inden-2-yl)-2-methylpropan-2-ylamino)-2-hydroxypropyl)-N-methylsulfamoyl)phenyl)pyridin-2-yl)propionic acid]"
9,≤ 0.3,"CN(C[C@H](O)CNC(C)(C)CCCc1ccccc1)S(=O)(=O)c1cc(F)cc(CCC(=O)O)c1Cl [Exp. 9-173, (R)-3-(2-chloro-5-fluoro-3-(N-(2-hydroxy-3-(2-methyl-5-phenylpentan-2-ylamino)propyl)-N-methylsulfamoyl)phenyl)propionic acid]"
10,≤ 0.3,"CN(C[C@H](O)CNC(C)(C)CCCc1ccccc1)S(=O)(=O)c1cc(OCC(=O)O)cc(C(F)(F)F)c1 [Exp. 9-179, (R)-2-(3-(N-(2-hydroxy-3-(2-methyl-5-phenylpentan-2-ylamino)propyl)-N-methylsulfamoyl)-5-(trifluoromethyl)phenyloxy)acetic acid]"
11,≤ 0.3,"CN(C[C@H](O)CNC(C)(C)CCCc1ccccc1)S(=O)(=O)c1cc(NCC(=O)O)cc(C(F)(F)F)c1 [Exp. 9-180, (R)-2-(3-(N-(2-hydroxy-3-(2-methyl-5-phenylpentan-2-ylamino)propyl)-N-methylsulfamoyl)-5-(trifluoromethyl)phenylamino)acetic acid]"
12,≤ 0.3,"CN(C[C@H](O)CNC(C)(C)CC1Cc2ccccc2C1)S(=O)(=O)c1ccc(CCCCCC(=O)O)c(C(F)(F)F)c1 [Exp. 10-14, (R)-6-(4-(N-(3-(1-(2,3-dihydro-1H-inden-2-yl)-2-methylpropan-2-ylamino)-2-hydroxypropyl)-N-methylsulfamoyl)-2-(trifluoromethyl)phenyl)hexanoic acid]"
13,≤ 0.3,"CN(CC(O)CNC(C)(C)CC1Cc2ccccc2C1)S(=O)(=O)c1cc(C=CC(=O)O)cc(C(F)(F)F)c1 (stereo not shown) [Exp. 11-1, 3-(3-(N-(3-(1-(2,3-dihydro-1H-inden-2-yl)-2-methylpropan-2-ylamino)-2-hydroxypropyl)-N-methylsulfamoyl)-5-(trifluoromethyl)phenyl)acrylic acid]"
14,≤ 0.3,"CC(C)(CC1Cc2ccccc2C1)NC[C@@H](O)CNS(=O)(=O)c1cccc(-c2cccc(C(=O)O)c2)c1 [Exp. 14-2, (R)-3′-(N-(3-(1-(2,3-dihydro-1H-inden-2-yl)-2-methylpropan-2-ylamino)-2-hydroxypropyl)sulfamoyl)biphenyl-3-carboxylic acid]"
